Blank lines part the entries; values can stand above or below the molecule they belong to. Starred links: 1 amine or outer side, 2 acyl side, 3 side chain; linkers in the order of their positions; H or OH if unused. Positions of bridges follow the written chain, without caps; N, C: chain ends. Non-standard residues stand in square brackets, D forms with d. Residues, ends and D or L forms follow the SMILES beside them. Chains are numbered I, II in the order given. Actinocin(9to1) = Cc1c2oc3c(C)ccc(C(=O)[*:1])c3nc-2c(C(=O)[*:2])c(N)c1=O; NMeV = CN[C@H](C(=O)O)C(C)C; Sar = CNCC(=O)O
Tests used:
[1] = molecular target: T1, OCTN2 (organic cation/carnitine transporter 2) (Homo sapiens, UniProt O76082); assay: TP_TRANSPORTER: inhibition of Carnitine uptake (Carnitine: 0.010? uM, S-methylmethionine sufonium: 500 uM) in OCTN2-expressing HEK293 cells; format: functional, cell-based; parameters: scale not given: the % may be the effect or the level left; conditions: HEK293 cells that express OCTN2, probe Carnitine, read-out: Activity
T1 sequence (O76082 whole entry): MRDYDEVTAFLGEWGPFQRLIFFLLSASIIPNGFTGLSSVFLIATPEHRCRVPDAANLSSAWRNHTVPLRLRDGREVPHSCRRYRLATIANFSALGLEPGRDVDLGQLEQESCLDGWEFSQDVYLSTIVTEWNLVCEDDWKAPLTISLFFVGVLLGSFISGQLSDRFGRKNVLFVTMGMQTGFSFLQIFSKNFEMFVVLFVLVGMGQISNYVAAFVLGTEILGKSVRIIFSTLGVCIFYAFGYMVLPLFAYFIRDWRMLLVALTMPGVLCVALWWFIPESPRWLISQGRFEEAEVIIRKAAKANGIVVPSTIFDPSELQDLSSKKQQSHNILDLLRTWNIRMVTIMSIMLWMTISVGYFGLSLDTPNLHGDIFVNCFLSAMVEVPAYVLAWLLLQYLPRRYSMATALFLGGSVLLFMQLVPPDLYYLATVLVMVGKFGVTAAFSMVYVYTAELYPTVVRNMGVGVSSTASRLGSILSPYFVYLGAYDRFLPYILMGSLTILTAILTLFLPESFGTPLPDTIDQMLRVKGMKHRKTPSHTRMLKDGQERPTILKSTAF

[2] = molecular target: T1, OCTN2 (organic cation/carnitine transporter 2); assay: TP_TRANSPORTER: inhibition of Carnitine uptake (Carnitine: 0.010? uM, MPP+: 100 uM) in OCTN2-expressing HEK293 cells; format: functional, cell-based; parameters: scale not given: the % may be the effect or the level left; conditions: HEK293 cells that express OCTN2, probe Carnitine, read-out: Activity
[3] = molecular target: T2, Organic cation/carnitine transporter 2 (Homo sapiens, UniProt O76082); assay: TP_TRANSPORTER: uptake in OCTN2-expressing HEK293 cells; format: functional, cell-based
T2 sequence (O76082 whole entry): T1 sequence (O76082 whole entry)

[4] = molecular target: T1, OCTN2 (organic cation/carnitine transporter 2); assay: TP_TRANSPORTER: inhibition of Carnitine uptake (Carnitine: 0.010? uM, Aldosterone: 500 uM) in OCTN2-expressing HEK293 cells; format: functional, cell-based; parameters: scale not given: the % may be the effect or the level left; conditions: HEK293 cells that express OCTN2, probe Carnitine, read-out: Activity
[5] = molecular target: T2, Organic cation/carnitine transporter 2; assay: TP_TRANSPORTER: inhibition of Carnitine uptake (Carnitine: 0.010? uM, Arginine: 500 uM) in OCTN2-expressing HEK293 cells; format: functional, cell-based; conditions: hek293, 500 µM
[6] = molecular target: T2, Organic cation/carnitine transporter 2; assay: TP_TRANSPORTER: inhibition of Carnitine uptake (Carnitine: 0.010? uM, Carnosine: 500 uM) in OCTN2-expressing HEK293 cells; format: functional, cell-based; conditions: hek293, 500 µM
[7] = molecular target: T1, OCTN2 (organic cation/carnitine transporter 2); assay: TP_TRANSPORTER: inhibition of Carnitine uptake (Carnitine: 0.010? uM, Cefsulodin: 500 uM) in OCTN2-expressing HEK293 cells; format: functional, cell-based; parameters: scale not given: the % may be the effect or the level left; conditions: HEK293 cells that express OCTN2, probe Carnitine, read-out: Activity
[8] = molecular target: T2, Organic cation/carnitine transporter 2; assay: TP_TRANSPORTER: inhibition of Carnitine uptake (Carnitine: 0.010? uM, Cephaloglycin: 500 uM) in OCTN2-expressing HEK293 cells; format: functional, cell-based; conditions: hek293, 500 µM
[9] = molecular target: T2, Organic cation/carnitine transporter 2; assay: TP_TRANSPORTER: inhibition of Carnitine uptake (Carnitine: 0.010? uM, Cephalotin: 500 uM) in OCTN2-expressing HEK293 cells; format: functional, cell-based; conditions: hek293, 500 µM
[10] = molecular target: T1, OCTN2 (organic cation/carnitine transporter 2); assay: in vitro; conditions: HEK293 cells that express OCTN2, probe Carnitine
Description: TP_TRANSPORTER: inhibition of Carnitine uptake (Carnitine: 0.010? uM, Cimetidine: 500 uM) in OCTN2-expressing HEK293 cells

[11] = molecular target: T1, OCTN2 (organic cation/carnitine transporter 2); assay: in vitro; conditions: HEK293 cells that express OCTN2, probe Carnitine; remark: listed apart in the source
Description: TP_TRANSPORTER: inhibition of Carnitine uptake (Carnitine: 0.010? uM, Clonidine: 500 uM) in OCTN2-expressing HEK293 cells

[12] = molecular target: T1, OCTN2 (organic cation/carnitine transporter 2); assay: TP_TRANSPORTER: inhibition of Carnitine uptake (Carnitine: 0.010? uM, Corticosterone: 500 uM) in OCTN2-expressing HEK293 cells; format: functional, cell-based; parameters: scale not given: the % may be the effect or the level left; conditions: HEK293 cells that express OCTN2, probe Carnitine, read-out: Activity
[13] = molecular target: T2, Organic cation/carnitine transporter 2; assay: TP_TRANSPORTER: inhibition of Carnitine uptake (Carnitine: 0.010? uM, Creatine: 500 uM) in OCTN2-expressing HEK293 cells; format: functional, cell-based; conditions: hek293, 500 µM
[14] = molecular target: T2, Organic cation/carnitine transporter 2; assay: TP_TRANSPORTER: inhibition of Carnitine uptake (Carnitine: 0.010? uM, Creatinine: 500 uM) in OCTN2-expressing HEK293 cells; format: functional, cell-based; conditions: hek293, 500 µM
[15] = molecular target: T1, OCTN2 (organic cation/carnitine transporter 2); assay: TP_TRANSPORTER: inhibition of Carnitine uptake (Carnitine: 0.010? uM, Actinomycin D: 100 uM) in OCTN2-expressing HEK293 cells; format: functional, cell-based; parameters: scale not given: the % may be the effect or the level left; conditions: HEK293 cells that express OCTN2, probe Carnitine, read-out: Activity
[16] = molecular target: T1, OCTN2 (organic cation/carnitine transporter 2); assay: TP_TRANSPORTER: inhibition of Carnitine uptake (Carnitine: 0.010? uM, Emetine: 500 uM) in OCTN2-expressing HEK293 cells; format: functional, cell-based; parameters: scale not given: the % may be the effect or the level left; conditions: HEK293 cells that express OCTN2, probe Carnitine, read-out: Activity
[17] = molecular target: T2, Organic cation/carnitine transporter 2; assay: TP_TRANSPORTER: inhibition of Carnitine uptake (Carnitine: 0.010? uM, Furosemide: 500 uM) in OCTN2-expressing HEK293 cells; format: functional, cell-based; conditions: hek293, 500 µM

Activity [9]: is not an inhibitor [-]
SMILES: CC(=O)OCC1=C(C(=O)O)N2C(=O)[C@@H](NC(=O)Cc3cccs3)[C@H]2SC1 [CEPHALOTHIN]

activity at 500 µM [11]: 67.6%
SMILES: Clc1cccc(Cl)c1N=C1NCCN1 [CLONIDINE]

activity at 500 µM [12]: 9.3%
SMILES: C[C@]12C[C@H](O)[C@H]3[C@@H](CCC4=CC(=O)CC[C@@]43C)[C@@H]1CC[C@@H]2C(=O)CO [CORTICOSTERONE]

Activity [13]: is not an inhibitor [-]
SMILES: CN(CC(=O)O)C(=N)N [CREATINE]

Activity [14]: is not an inhibitor [-]
SMILES: CN1CC(=O)NC1=N [CREATININE]

activity at 100 µM [15]: 69%
Activity [3]: is not a substrate [-]
SMILES: Cc1c2oc3c(C)ccc(C(=O)N[C@@H]4C(=O)N[C@H](C(C)C)C(=O)N5CCC[C@H]5C(=O)N(C)CC(=O)N(C)[C@@H](C(C)C)C(=O)O[C@@H]4C)c3nc-2c(C(=O)N[C@@H]2C(=O)N[C@H](C(C)C)C(=O)N3CCC[C@H]3C(=O)N(C)CC(=O)N(C)[C@@H](C(C)C)C(=O)O[C@@H]2C)c(N)c1=O [DACTINOMYCIN] (I: T[dV]P[Sar][NMeV] / II: T[dV]P[Sar][NMeV]; ester I:1-I:C, II:1-II:C; linker I:N-II:N via Actinocin(9to1))

Activity [17]: is not an inhibitor [-]
SMILES: NS(=O)(=O)c1cc(C(=O)O)c(NCc2ccco2)cc1Cl [FUROSEMIDE]

Continued, molecule first:

SMILES: C[S+](C)CC[C@H](N)C(=O)[O-]
activity at 500 µM [1]: 8.7%

SMILES: C[n+]1ccc(-c2ccccc2)cc1
activity at 100 µM [2]: 69.8%
Activity [3]: is not a substrate [-]

SMILES: C[C@]12CCC(=O)C=C1CC[C@@H]1[C@@H]2[C@@H](O)C[C@]2(C=O)[C@@H](C(=O)CO)CC[C@@H]12 [ALDOSTERONE]
activity at 500 µM [4]: 37.1%

SMILES: N=C(N)NCCC[C@H](N)C(=O)O [ARGININE]
Activity [5]: is not an inhibitor [-]

SMILES: NCCC(=O)N[C@@H](Cc1cnc[nH]1)C(=O)O [CARNOSINE]
Activity [6]: is not an inhibitor [-]

SMILES: NC(=O)c1cc[n+](CC2=C(C(=O)O)N3C(=O)[C@@H](NC(=O)[C@@H](c4ccccc4)S(=O)(=O)[O-])[C@H]3SC2)cc1 [CEFSULODIN]
activity at 500 µM [7]: 32.8%

SMILES: CC(=O)OCC1=C(C(=O)O)N2C(=O)[C@@H](NC(=O)[C@H](N)c3ccccc3)[C@H]2SC1 [CEPHALOGLYCIN]
Activity [8]: is not an inhibitor [-]

SMILES: CN/C(=N/CCSCc1nc[nH]c1C)NC#N [CIMETIDINE]
activity at 500 µM [10]: 66.4%
Activity [3]: is not a substrate [-]

SMILES: CC[C@H]1CN2CCc3cc(OC)c(OC)cc3[C@@H]2C[C@@H]1C[C@H]1NCCc2cc(OC)c(OC)cc21 [EMETINE]
activity at 500 µM [16]: 16.6%

From ChEMBL document CHEMBL2073748, “Na(+)-dependent carnitine transport by organic cation transporter (OCTN2): its pharmacological and toxicological relevance” (J Pharmacol Exp Ther, 1999)
